Source: PubChem BioAssay AID1963974 (Molecular Pharmacology Branch, DTP, NCI, 2024)
pIC50: −log10 of the molar value.

Tested on: 648629-189-R-J1-PDC spheroids with HUVEC/MSC, viability
Experiment: Anticancer human tumor 648629-189-R-J1-PDC patient-derived bladder carcinoma cell line growth inhibition [PI3K]
Conditions: for pIC50: curve of first compound; for viability, T/C: stronger effect = lower value; active means viability on the fitted dose curve at most 10% of control; inactive means the rest
How it was run: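 We assembled tumor spheroids that included a stromal compartment of HUVEC and MSCs, then exposed them to targeted agents alone and together with PI3K pathway inhibitors. Concentration series descended by half-log from clinically achievable Cmax levels. Viability served as the endpoint.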
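Further: spheroids exposed to agents for seven days before reading.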
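Wherever viability, T/C is given: percent of vehicle control luminescence where 100% = DMSO treated spheroids.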

CNC(=O)c1ccc(N2C(=S)N(c3ccc(C#N)c(C(F)(F)F)c3)C(=O)C2(C)C)cc1F + Cc1nc(NC(=O)N2CCCC2C(N)=O)sc1-c1ccnc(C(C)(C)C(F)(F)F)c1
< 5.00: pIC50 (second compound 0.0316 µM) | pIC50 (second compound 0.1 µM) | pIC50 (second compound 0.316 µM) | pIC50 (second compound 1 µM) | pIC50 (second compound 3.16 µM)
inactive: viability, T/C (second compound 0.0316 µM, first compound 0.0316 µM) 106% | viability, T/C (second compound 0.0316 µM, first compound 0.1 µM) 105% | viability, T/C (second compound 0.0316 µM, first compound 0.316 µM) 118% | viability, T/C (second compound 0.0316 µM, first compound 1 µM) 111% | viability, T/C (second compound 0.0316 µM, first compound 3.16 µM) 104% | viability, T/C (second compound 0.0316 µM, first compound 10 µM) 89.7% | viability, T/C (second compound 0.1 µM, first compound 0.0316 µM) 90.1% | viability, T/C (second compound 0.1 µM, first compound 0.1 µM) 92.7% | viability, T/C (second compound 0.1 µM, first compound 0.316 µM) 106% | viability, T/C (second compound 0.1 µM, first compound 1 µM) 102% | viability, T/C (second compound 0.1 µM, first compound 3.16 µM) 102% | viability, T/C (second compound 0.1 µM, first compound 10 µM) 79% | viability, T/C (second compound 0.316 µM, first compound 0.0316 µM) 91.4% | viability, T/C (second compound 0.316 µM, first compound 0.1 µM) 99.7% | viability, T/C (second compound 0.316 µM, first compound 0.316 µM) 98.1% | viability, T/C (second compound 0.316 µM, first compound 1 µM) 98.4% | viability, T/C (second compound 0.316 µM, first compound 3.16 µM) 89.7% | viability, T/C (second compound 0.316 µM, first compound 10 µM) 72.8% | viability, T/C (second compound 1 µM, first compound 0.0316 µM) 73.2% | viability, T/C (second compound 1 µM, first compound 0.1 µM) 82.3% | viability, T/C (second compound 1 µM, first compound 0.316 µM) 76.7% | viability, T/C (second compound 1 µM, first compound 1 µM) 81.1% | viability, T/C (second compound 1 µM, first compound 3.16 µM) 78.6% | viability, T/C (second compound 1 µM, first compound 10 µM) 75.2% | viability, T/C (second compound 3.16 µM, first compound 0.0316 µM) 64% | viability, T/C (second compound 3.16 µM, first compound 0.1 µM) 67.1% | viability, T/C (second compound 3.16 µM, first compound 0.316 µM) 55.1% | viability, T/C (second compound 3.16 µM, first compound 1 µM) 60.7% | viability, T/C (second compound 3.16 µM, first compound 3.16 µM) 64.7% | viability, T/C (second compound 3.16 µM, first compound 10 µM) 63.2% | viability, T/C (second compound 10 µM, first compound 0.0316 µM) 40.3% | viability, T/C (second compound 10 µM, first compound 0.1 µM) 44.1% | viability, T/C (second compound 10 µM, first compound 0.316 µM) 40.2% | viability, T/C (second compound 10 µM, first compound 1 µM) 42% | viability, T/C (second compound 10 µM, first compound 3.16 µM) 45.7% | viability, T/C (second compound 10 µM, first compound 10 µM) 48.6%
> 7.50: pIC50 (second compound 10 µM)
